{"source": "ChEMBL document CHEMBL3351589", "about": "“Novel chalcone derivatives as hypoxia-inducible factor (HIF)-1 inhibitor: synthesis, anti-invasive and anti-angiogenic properties” (Eur J Med Chem, 2015)", "key": {"Hep 3B2 [1]": {"test_system": "Hep 3B2", "assay": "Antitumor activity against human Hep3B cells xenografted in Balb/c nude mouse assessed as reduction in MMP-2 expression at 2.5 to 5 mg/kg, iv by immunohistochemical analysis", "type": "functional, organism-based"}, "[2]": {"assay": "Cytotoxicity against human Hep3B cells at >20 uM after 12 hrs by MTT assay", "type": "cell-based", "settings": "hep 3b2, 12 h"}, "Mus musculus [3]": {"test_system": "Mus musculus", "assay": "Acute toxicity in Swiss mouse assessed as structural abnormality in lung at 300 mg/kg, iv after 14 days by histological analysis relative to control", "type": "organism-based", "parameters": "dose 300 mg/kg, route intravenous", "settings": "in vivo, 336 h"}, "HUVEC [4]": {"test_system": "HUVEC", "assay": "Antimigratory activity in HUVEC assessed as inhibition of VEGF-induced migration at 0.8 to 20 uM by real time cell analysis", "type": "functional, cell-based", "settings": "Homo sapiens"}, "HUVEC [5]": {"test_system": "HUVEC", "assay": "Cytotoxicity against HUVEC at >20 uM after 12 hrs by MTT assay", "type": "cell-based", "settings": "human"}, "[6]": {"assay": "Reduction of hypoxia-induced VEGF expression in human Hep3B cells after 48 hrs by Western blotting analysis", "type": "functional, cell-based", "settings": "Hep 3B2"}, "Hep 3B2 [7]": {"test_system": "Hep 3B2", "assay": "Antitumor activity against human Hep3B cells xenografted in iv dosed Balb/c nude mouse assessed as inhibition of tumor growth after 11 days", "type": "functional, organism-based"}, "[8]": {"assay": "Acute toxicity in iv dosed Swiss mouse", "type": "organism-based", "settings": "in vivo"}, "Mus musculus [9]": {"test_system": "Mus musculus", "assay": "Acute toxicity in Swiss mouse assessed as structural abnormality in kidney at 300 mg/kg, iv after 14 days by histological analysis relative to control", "type": "organism-based", "parameters": "dose 300 mg/kg, route intravenous", "settings": "in vivo, 336 h"}, "HUVEC [10]": {"test_system": "HUVEC", "assay": "Antiangiogenic activity in HUVEC assessed as inhibition of VEGF-induced tube formation after 30 mins by matrigel assay", "type": "functional, cell-based", "settings": "Homo sapiens"}, "[11]": {"assay": "Acute toxicity in Swiss mouse assessed as mortality rate at 300 mg/kg, iv after 14 days relative to control", "type": "organism-based", "parameters": "dose 300 mg/kg, route intravenous", "settings": "in vivo"}, "[12]": {"assay": "Reduction of hypoxia-induced HIF-1 beta expression in human Hep3B cells after 48 hrs by Western blotting analysis", "type": "functional, cell-based", "settings": "Hep 3B2"}, "[13]": {"assay": "Reduction of hypoxia-induced VEGF mRNA expression in human Hep3B cells after 48 hrs by RT-PCR analysis", "type": "functional, cell-based", "settings": "Hep 3B2"}, "Mus musculus [14]": {"test_system": "Mus musculus", "assay": "Toxicity in Balb/c nude mouse xenografted with human Hep3B cells assessed as change in body weight at 2.5 to 5 mg/kg, iv", "type": "organism-based, Hep 3B2", "parameters": "dose 2.5-5 mg/kg, route intravenous", "settings": "in vivo"}, "Hep 3B2 [15]": {"test_system": "Hep 3B2", "assay": "Antimigratory activity in human Hep3B cells assessed as inhibition of VEGF-induced migration at 0.8 to 20 uM by real time cell analysis", "type": "functional, cell-based"}, "Hep 3B2 [16]": {"test_system": "Hep 3B2", "assay": "Antitumor activity against human Hep3B cells xenografted in Balb/c nude mouse assessed as reduction in microvessel density at 2.5 to 5 mg/kg, iv by immunohistochemical analysis", "type": "functional, organism-based"}, "[17]": {"assay": "Acute toxicity in Swiss mouse assessed as mortality rate at 100 mg/kg, iv after 14 days relative to control", "type": "organism-based", "parameters": "dose 100 mg/kg, route intravenous", "settings": "in vivo"}, "[18]": {"assay": "Acute toxicity in Swiss mouse assessed as mortality rate at 200 mg/kg, iv after 14 days relative to control", "type": "organism-based", "parameters": "dose 200 mg/kg, route intravenous", "settings": "in vivo"}, "HUVEC [19]": {"test_system": "HUVEC", "assay": "Antiinvasive activity in HUVEC assessed as inhibition of VEGF-induced invasion after 30 mins by transwell assay", "type": "functional, cell-based", "settings": "Homo sapiens"}, "Hep 3B2 [20]": {"test_system": "Hep 3B2", "assay": "Antiinvasive activity in human Hep3B cells assessed as inhibition of VEGF-induced invasion after 30 mins by transwell assay", "type": "functional, cell-based"}, "[21]": {"assay": "Reduction of hypoxia-induced HIF-1 alpha expression in human Hep3B cells after 48 hrs by Western blotting analysis", "type": "functional, cell-based", "settings": "Hep 3B2"}, "[22]": {"assay": "Reduction of hypoxia-induced HIF-1 beta expression in human Hep3B cells at 10 uM after 48 hrs by Western blotting analysis", "type": "functional, cell-based", "settings": "Hep 3B2"}, "[23]": {"assay": "Reduction of hypoxia-induced HIF-1 alpha expression in human Hep3B cells at 10 uM after 48 hrs by Western blotting analysis", "type": "functional, cell-based", "settings": "Hep 3B2"}}, "note": "Calls of active or inactive are those of the source. No cut-off for these calls is given here."}
{"smiles": "COc1ccc(/C=C/C(=O)c2ccc3c(c2O)C=CC(C)(C)O3)cc1O", "values": [{"measurement": "Activity", "setting": "Hep 3B2 [1]", "value": "Active"}, {"measurement": "Activity", "setting": "[2]", "value": "Non-toxic"}, {"measurement": "Activity", "setting": "Mus musculus [3]", "value": "Non-toxic"}, {"measurement": "Activity", "setting": "HUVEC [4]", "value": "Active"}, {"measurement": "Activity", "setting": "HUVEC [5]", "value": "Non-toxic"}, {"measurement": "Activity", "setting": "[6]", "value": "Dose-dependent effect"}, {"measurement": "inhibition", "setting": "Hep 3B2 [7]", "value": "Dose-dependent effect"}, {"measurement": "MTD", "setting": "[8]", "value": 22, "unit": "mg/kg"}, {"measurement": "Activity", "setting": "Mus musculus [9]", "value": "Non-toxic"}, {"measurement": "inhibition", "setting": "HUVEC [10]", "value": "Dose-dependent effect"}, {"measurement": "mortality at 336 h", "setting": "[11]", "value": 16.7, "unit": "%"}, {"measurement": "Activity", "setting": "[12]", "value": "Dose-dependent effect"}, {"measurement": "Activity", "setting": "[13]", "value": "Dose-dependent effect"}, {"measurement": "Activity", "setting": "Mus musculus [14]", "value": "Non-toxic"}, {"measurement": "Activity", "setting": "Hep 3B2 [15]", "value": "Active"}, {"measurement": "Activity", "setting": "Hep 3B2 [16]", "value": "Active"}, {"measurement": "mortality at 336 h", "setting": "[17]", "value": 0, "unit": "%"}, {"measurement": "mortality at 336 h", "setting": "[18]", "value": 0, "unit": "%"}, {"measurement": "Activity", "setting": "HUVEC [19]", "value": "Dose-dependent effect"}, {"measurement": "Activity", "setting": "Hep 3B2 [20]", "value": "Dose-dependent effect"}, {"measurement": "Activity", "setting": "[21]", "value": "Dose-dependent effect"}]}
{"smiles": "CC[C@@]1(O)C(=O)OCc2c1cc1n(c2=O)Cc2cc3c(CN(C)C)c(O)ccc3nc2-1", "values": [{"measurement": "Activity", "setting": "[22]", "value": "Active"}, {"measurement": "Activity", "setting": "[23]", "value": "Active"}]}
